According to the NIST ThermoML archive (doi:10.1021/je800017j):
± gives the expanded uncertainty stated by the source.

Experiment: xn = mol fraction of the nth substance listed
Conditions: Liquid, Vibrating tube method

## C=CC [propene] + CC(C)O
325.09 K, 5370.7 kPa, x1 = 0.2011
  mass density: 709.32 ± 0.74 kg/m3
325.09 K, 5883.5 kPa, x1 = 0.2011
  mass density: 709.98 ± 0.75 kg/m3
325.09 K, 6336.2 kPa, x1 = 0.2011
  mass density: 710.58 ± 0.75 kg/m3
325.09 K, 6788.4 kPa, x1 = 0.2011
  mass density: 711.17 ± 0.75 kg/m3
325.09 K, 7346.6 kPa, x1 = 0.2011
  mass density: 711.9 ± 0.75 kg/m3
325.09 K, 7879.3 kPa, x1 = 0.2011
  mass density: 712.57 ± 0.75 kg/m3
325.09 K, 8392.5 kPa, x1 = 0.2011
  mass density: 713.18 ± 0.75 kg/m3
325.09 K, 8985.2 kPa, x1 = 0.2011
  mass density: 713.89 ± 0.76 kg/m3
325.09 K, 9587.7 kPa, x1 = 0.2011
  mass density: 714.65 ± 0.76 kg/m3
325.09 K, x1 = 0.2011
  mass density: 703.01 ± 0.73 kg/m3
325.13 K, 1747.5 kPa, x1 = 0.6478
  mass density: 573.29 ± 0.62 kg/m3
325.13 K, 2151.8 kPa, x1 = 0.6478
  mass density: 574.52 ± 0.63 kg/m3
325.13 K, 2607.5 kPa, x1 = 0.6478
  mass density: 575.84 ± 0.63 kg/m3
325.13 K, 3022.1 kPa, x1 = 0.6478
  mass density: 577 ± 0.64 kg/m3
325.13 K, 3422.7 kPa, x1 = 0.6478
  mass density: 578.16 ± 0.64 kg/m3
325.13 K, 3826.3 kPa, x1 = 0.6478
  mass density: 579.23 ± 0.64 kg/m3
325.13 K, 4289 kPa, x1 = 0.6478
  mass density: 580.41 ± 0.64 kg/m3
325.13 K, 4682.5 kPa, x1 = 0.6478
  mass density: 581.48 ± 0.65 kg/m3
325.13 K, 5094.6 kPa, x1 = 0.6478
  mass density: 582.53 ± 0.65 kg/m3
325.13 K, 5524.8 kPa, x1 = 0.6478
  mass density: 583.59 ± 0.65 kg/m3
325.13 K, 5972.2 kPa, x1 = 0.6478
  mass density: 584.68 ± 0.66 kg/m3
325.13 K, 6431 kPa, x1 = 0.6478
  mass density: 585.75 ± 0.66 kg/m3
325.13 K, 6923.3 kPa, x1 = 0.6478
  mass density: 586.94 ± 0.66 kg/m3
325.13 K, 7433.5 kPa, x1 = 0.6478
  mass density: 588.03 ± 0.67 kg/m3
325.13 K, 7935 kPa, x1 = 0.6478
  mass density: 589.22 ± 0.67 kg/m3
325.13 K, 8459.9 kPa, x1 = 0.6478
  mass density: 590.39 ± 0.67 kg/m3
325.13 K, 9024 kPa, x1 = 0.6478
  mass density: 591.62 ± 0.68 kg/m3
325.13 K, 9558.5 kPa, x1 = 0.6478
  mass density: 592.78 ± 0.68 kg/m3
325.13 K, x1 = 0.6478
  mass density: 573.24 ± 0.62 kg/m3
350.12 K, 2332.3 kPa, x1 = 0.5201
  mass density: 576.59 ± 0.63 kg/m3
350.12 K, 2731.4 kPa, x1 = 0.5201
  mass density: 577.92 ± 0.63 kg/m3
350.12 K, 2992.4 kPa, x1 = 0.5201
  mass density: 578.85 ± 0.64 kg/m3
350.12 K, 3218 kPa, x1 = 0.5201
  mass density: 579.68 ± 0.64 kg/m3
350.12 K, 3506.1 kPa, x1 = 0.5201
  mass density: 580.58 ± 0.64 kg/m3
350.12 K, 3765.6 kPa, x1 = 0.5201
  mass density: 581.46 ± 0.64 kg/m3
350.12 K, 4225.5 kPa, x1 = 0.5201
  mass density: 582.95 ± 0.65 kg/m3
350.12 K, 4550.6 kPa, x1 = 0.5201
  mass density: 583.87 ± 0.65 kg/m3
350.12 K, 4824.4 kPa, x1 = 0.5201
  mass density: 584.73 ± 0.65 kg/m3
350.12 K, 5103.7 kPa, x1 = 0.5201
  mass density: 585.64 ± 0.65 kg/m3
350.12 K, 5399.3 kPa, x1 = 0.5201
  mass density: 586.54 ± 0.65 kg/m3
350.12 K, 5715.5 kPa, x1 = 0.5201
  mass density: 587.44 ± 0.66 kg/m3
350.12 K, 5999.5 kPa, x1 = 0.5201
  mass density: 588.29 ± 0.66 kg/m3
350.12 K, 6303.9 kPa, x1 = 0.5201
  mass density: 589.18 ± 0.66 kg/m3
350.12 K, 6632.8 kPa, x1 = 0.5201
  mass density: 590.1 ± 0.66 kg/m3
350.12 K, 6975.5 kPa, x1 = 0.5201
  mass density: 591.05 ± 0.67 kg/m3
350.12 K, 7280 kPa, x1 = 0.5201
  mass density: 591.94 ± 0.67 kg/m3
350.12 K, 7641.3 kPa, x1 = 0.5201
  mass density: 592.87 ± 0.67 kg/m3
350.12 K, 7963.5 kPa, x1 = 0.5201
  mass density: 593.76 ± 0.67 kg/m3
350.12 K, 8312 kPa, x1 = 0.5201
  mass density: 594.68 ± 0.68 kg/m3
350.12 K, 8762.4 kPa, x1 = 0.5201
  mass density: 595.82 ± 0.68 kg/m3
350.12 K, 9211 kPa, x1 = 0.5201
  mass density: 596.88 ± 0.68 kg/m3
350.12 K, 9622.9 kPa, x1 = 0.5201
  mass density: 597.92 ± 0.69 kg/m3
350.12 K, x1 = 0.5201
  mass density: 575.99 ± 0.62 kg/m3
350.18 K, 1639.5 kPa, x1 = 0.2011
  mass density: 677.13 ± 0.71 kg/m3
350.18 K, 2070 kPa, x1 = 0.2011
  mass density: 677.93 ± 0.71 kg/m3
350.18 K, 2446.2 kPa, x1 = 0.2011
  mass density: 678.64 ± 0.71 kg/m3
350.18 K, 2689 kPa, x1 = 0.6478
  mass density: 531.01 ± 0.6 kg/m3
350.18 K, 2924.3 kPa, x1 = 0.2011
  mass density: 679.5 ± 0.71 kg/m3
350.18 K, 3126.3 kPa, x1 = 0.6478
  mass density: 533.02 ± 0.61 kg/m3
350.18 K, 3271.4 kPa, x1 = 0.2011
  mass density: 680.17 ± 0.72 kg/m3
350.18 K, 3675.3 kPa, x1 = 0.2011
  mass density: 680.86 ± 0.72 kg/m3
350.18 K, 3686.2 kPa, x1 = 0.6478
  mass density: 535.68 ± 0.61 kg/m3
350.18 K, 3914.3 kPa, x1 = 0.6478
  mass density: 536.74 ± 0.62 kg/m3
350.18 K, 4058.4 kPa, x1 = 0.2011
  mass density: 681.6 ± 0.72 kg/m3
350.18 K, 4203.2 kPa, x1 = 0.6478
  mass density: 537.97 ± 0.62 kg/m3
350.18 K, 4446.8 kPa, x1 = 0.2011
  mass density: 682.32 ± 0.72 kg/m3
350.18 K, 4484.6 kPa, x1 = 0.6478
  mass density: 539.15 ± 0.62 kg/m3
350.18 K, 4738.5 kPa, x1 = 0.6478
  mass density: 540.5 ± 0.62 kg/m3
350.18 K, 4791.3 kPa, x1 = 0.2011
  mass density: 682.93 ± 0.72 kg/m3
350.18 K, 5023.4 kPa, x1 = 0.6478
  mass density: 541.63 ± 0.62 kg/m3
350.18 K, 5171.9 kPa, x1 = 0.2011
  mass density: 683.6 ± 0.72 kg/m3
350.18 K, 5321.2 kPa, x1 = 0.6478
  mass density: 542.86 ± 0.63 kg/m3
350.18 K, 5557.4 kPa, x1 = 0.2011
  mass density: 684.26 ± 0.73 kg/m3
350.18 K, 5614 kPa, x1 = 0.6478
  mass density: 543.95 ± 0.63 kg/m3
350.18 K, 5938.9 kPa, x1 = 0.6478
  mass density: 545.1 ± 0.63 kg/m3
350.18 K, 6002 kPa, x1 = 0.2011
  mass density: 684.96 ± 0.73 kg/m3
350.18 K, 6268.4 kPa, x1 = 0.6478
  mass density: 546.35 ± 0.64 kg/m3
350.18 K, 6430.2 kPa, x1 = 0.2011
  mass density: 685.69 ± 0.73 kg/m3
350.18 K, 6622.1 kPa, x1 = 0.6478
  mass density: 547.76 ± 0.64 kg/m3
350.18 K, 6978.6 kPa, x1 = 0.6478
  mass density: 548.98 ± 0.64 kg/m3
350.18 K, 7071.2 kPa, x1 = 0.2011
  mass density: 686.73 ± 0.73 kg/m3
350.18 K, 7362 kPa, x1 = 0.6478
  mass density: 550.27 ± 0.65 kg/m3
350.18 K, 7570.5 kPa, x1 = 0.2011
  mass density: 687.62 ± 0.73 kg/m3
350.18 K, 7736.5 kPa, x1 = 0.6478
  mass density: 551.56 ± 0.65 kg/m3
350.18 K, 7944.1 kPa, x1 = 0.2011
  mass density: 688.25 ± 0.74 kg/m3
350.18 K, 8126.2 kPa, x1 = 0.6478
  mass density: 552.91 ± 0.65 kg/m3
350.18 K, 8386.8 kPa, x1 = 0.2011
  mass density: 688.92 ± 0.74 kg/m3
350.18 K, 8525.5 kPa, x1 = 0.6478
  mass density: 554.11 ± 0.66 kg/m3
350.18 K, 8826.8 kPa, x1 = 0.2011
  mass density: 689.6 ± 0.74 kg/m3
350.18 K, 8979.8 kPa, x1 = 0.6478
  mass density: 555.58 ± 0.66 kg/m3
350.18 K, 9279 kPa, x1 = 0.2011
  mass density: 690.38 ± 0.74 kg/m3
350.18 K, 9488 kPa, x1 = 0.6478
  mass density: 557.04 ± 0.66 kg/m3
350.18 K, 9779.6 kPa, x1 = 0.2011
  mass density: 691.08 ± 0.74 kg/m3
350.18 K, 9989.8 kPa, x1 = 0.6478
  mass density: 558.59 ± 0.67 kg/m3
350.18 K, x1 = 0.2011
  mass density: 676.38 ± 0.7 kg/m3
350.18 K, x1 = 0.6478
  mass density: 530.66 ± 0.59 kg/m3
